Experimental data taken from PMC4411300, “Reconstitution and structure of a bacterial Pnkp1–Rnl–Hen1 RNA repair complex” (Nature Communications, 2015).

Tests used:
[1] = molecular target: Hen1 in the Pnkp1–Rnl–Hen1 heterohexamer (CgiHen1) (Capnocytophaga gingivalis, UniProt Z9ZGS5E134); experiment: X-ray crystal structure, […] Å, co-purified ligand; assay type: binding; details: methyltransferase active site of Hen1; retained from E. coli expression, not added; weak density, low occupancy
[2] = molecular target: Capnocytophaga gingivalis Pnkp1 (Capnocytophaga gingivalis); experiment: SEC; purified proteins analysed singly, or two proteins combined in equimolar and incubated at 4 °C for an hour before size-exclusion chromatography

Row | stoichiometry N [2] | Molecule | X-ray crystal structure, 3.4 Å, co-purified ligand [1]
1 | – | Nc1ncnc2c1ncn2[C@@H]1O[C@H](CSCC[C@H](N)C(=O)O)[C@@H](O)[C@H]1O [SAH] | SAH was modelled in the methyltransferase active site of Hen1-b
2 | 2 | Capnocytophaga gingivalis Pnkp1 (enzyme) | –
